Data taken from paper PMC3914206.

Columns and labels:
[1] = biological target: T1, panel of 442 kinases (Homo sapiens, UniProt O75385); format: binding; conditions: kinase ULK1; compound concentration 10 µM
T1 construct: purchased KINOMEscan
T1 sequence (O75385 1-1050): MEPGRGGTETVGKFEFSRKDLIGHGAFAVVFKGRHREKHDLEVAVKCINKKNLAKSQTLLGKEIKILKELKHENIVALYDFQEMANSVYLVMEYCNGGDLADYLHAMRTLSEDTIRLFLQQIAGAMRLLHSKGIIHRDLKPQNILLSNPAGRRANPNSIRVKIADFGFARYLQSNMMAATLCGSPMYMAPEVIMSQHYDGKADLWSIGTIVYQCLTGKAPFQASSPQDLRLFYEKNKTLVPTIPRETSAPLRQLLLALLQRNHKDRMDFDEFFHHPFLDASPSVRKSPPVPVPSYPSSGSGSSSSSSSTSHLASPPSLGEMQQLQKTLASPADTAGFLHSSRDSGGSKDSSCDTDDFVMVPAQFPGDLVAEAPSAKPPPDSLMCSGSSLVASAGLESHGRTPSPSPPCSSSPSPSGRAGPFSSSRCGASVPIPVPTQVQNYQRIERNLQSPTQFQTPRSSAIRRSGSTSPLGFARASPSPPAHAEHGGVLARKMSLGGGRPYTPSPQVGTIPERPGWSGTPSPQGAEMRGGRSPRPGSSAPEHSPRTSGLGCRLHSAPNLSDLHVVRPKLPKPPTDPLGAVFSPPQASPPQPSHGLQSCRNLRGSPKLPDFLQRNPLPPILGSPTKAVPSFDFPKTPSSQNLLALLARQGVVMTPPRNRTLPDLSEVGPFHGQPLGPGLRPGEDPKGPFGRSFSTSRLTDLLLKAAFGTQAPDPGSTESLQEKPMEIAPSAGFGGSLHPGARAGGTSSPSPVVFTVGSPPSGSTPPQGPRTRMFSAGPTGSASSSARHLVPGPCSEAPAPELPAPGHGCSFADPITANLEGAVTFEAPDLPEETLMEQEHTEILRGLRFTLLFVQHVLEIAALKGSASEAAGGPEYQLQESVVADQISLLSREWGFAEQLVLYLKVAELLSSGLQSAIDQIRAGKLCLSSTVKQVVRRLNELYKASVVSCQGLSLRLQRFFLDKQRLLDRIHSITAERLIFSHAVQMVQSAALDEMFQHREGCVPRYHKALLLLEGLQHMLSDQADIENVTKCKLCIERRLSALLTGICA
Text: (§1) We assessed the selectivity of members of this scaffold using the KINOMEscan methodology across a near comprehensive panel of 442 kinases [[18,27]].

[2] = biological target: T2, panel of 442 kinases (Homo sapiens, UniProt Q9Y2H1); format: binding; conditions: Compound Concentration 10 µM
T2 construct: purchased KINOMEscan
T2 sequence (Q9Y2H1 whole entry): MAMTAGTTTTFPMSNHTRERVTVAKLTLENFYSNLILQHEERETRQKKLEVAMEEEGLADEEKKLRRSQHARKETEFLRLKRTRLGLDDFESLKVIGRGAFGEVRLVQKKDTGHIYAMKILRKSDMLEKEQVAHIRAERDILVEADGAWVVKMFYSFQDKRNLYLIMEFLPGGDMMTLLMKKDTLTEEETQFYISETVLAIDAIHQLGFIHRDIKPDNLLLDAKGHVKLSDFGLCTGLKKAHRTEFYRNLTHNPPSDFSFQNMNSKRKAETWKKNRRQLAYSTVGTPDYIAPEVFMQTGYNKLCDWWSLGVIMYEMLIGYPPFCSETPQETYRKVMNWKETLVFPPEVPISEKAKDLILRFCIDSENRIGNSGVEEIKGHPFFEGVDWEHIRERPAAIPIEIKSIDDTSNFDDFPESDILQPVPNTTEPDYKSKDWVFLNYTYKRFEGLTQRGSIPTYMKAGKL
Text: as §1

Row | SMILES | % Ctrl, ULK1 [1] [% Ctrl] | KINOMEscan: NDR2 [2]
1 | COc1cc(C(=O)N2CCC(N3CCN(C)CC3)CC2)ccc1Nc1ncc2c(n1)N(C1CCCC1)c1ccccc1C(=O)N2C [Compound 25, 11-cyclopentyl-2-((2-methoxy-4-(4-(4-methylpiperazin-1-yl)piperidine-1-carbonyl)phenyl)amino)-5-methyl-5H-benzo[e]pyrimido[5,4-b][1,4]diazepin-6(11H)-one] | 100 | 100
2 | COc1cc(C(=O)N2CCC(N3CCN(C)CC3)CC2)ccc1Nc1ncc2c(n1)N1CCc3cccc(c31)C(=O)N2C [Compound 24] | 100 | 
3 | COc1cc(C(=O)N2CCC(N3CCN(C)CC3)CC2)ccc1Nc1ncc2c(n1)N(C)c1ccccc1C(=O)N2C [15 (LRRK2-IN-1)] | 80 | 100
4 | CCOc1cc(C(=O)N2CCC(N3CCN(C)CC3)CC2)ccc1Nc1ncc2c(n1)N(C1CCCC1)c1ccccc1C(=O)N2C [Compound 26] | 100 | 100
